Assay results from patent US20130217659A1, “PROCESS FOR THE CRYSTALLISATION OF CEFADROXIL MONOHYDRATE” (DSM SINOCHEM PHARMACEUTICALS NETHERLANDS B.V., priority 2006, published 2013).
One block for each molecule: values may come before it.

Tests used:
Type in all cases: physicochemical
[1] = Colour stability test, stress conditions: storage at 40° C.; settings: stored at 40° C.
Experimental: The CIE b value was determined using a X-Rite® 918 apparatus (X-Rite Incorporated, 4300 44th St. SE, Grand Rapids, Mich. 49512 USA). A sample of 2 g of cefadroxil crystals was placed at the appropriate place of the apparatus and the CIE b value was read. The average of two separate readings was calculated. Cefadroxil (CDX) monohydrate crystals obtained by the one-step crystallisation process of the Reference Experiment A and the two-step crystallisation process according to the present invention were stored at a temperature of 40° C. The CIE b values of the different cefadroxil monohydrate crystals were determined at different time intervals as indicated in Table 1. CDX (1)-(3) were obtained from 3 different crystallisation processes.

[2] = Determination of the CIE b value (colour of crystals) after crystallisation; settings: crystals after isolation and drying, t=0; monohydrate
Experimental: CIE is an abbreviation for the French title of the International Commission on Illumination: “Commission International de l'Eclairage”. The CIE b is a measure to determine the colour of crystals, which is a known technology for the skilled man in the art. An overview of the fundamentals of the CIE colorimetry system is given in Ohno, Y., Paper for IS&T NIO16 Conference, Vancouver, Canada, Oct. 16-20, 2000, p. 1-5. The CIE b value was determined using a X-Rite® 918 apparatus (X-Rite Incorporated, 4300 44th St. SE, Grand Rapids, Mich. 49512 USA). A sample of 2 g of cefadroxil crystals was placed at the appropriate place of the apparatus and the CIE b value was read. The average of two separate readings was calculated.

[3] = Colour stability test, storage at 25° C.; settings: stored at 25° C.
Experimental: The CIE b value was determined using a X-Rite® 918 apparatus (X-Rite Incorporated, 4300 44th St. SE, Grand Rapids, Mich. 49512 USA). A sample of 2 g of cefadroxil crystals was placed at the appropriate place of the apparatus and the CIE b value was read. The average of two separate readings was calculated. The cefadroxil monohydrate crystals obtained with the one-step crystallisation process of Reference experiment A and a two-step crystallisation process according to the present invention were stored at 25° C.

- CIE b ([1]; 0 weeks, monohydrate): 4.8
- CIE b ([1]; 4 weeks, monohydrate): 6.6
- CIE b ([1]; 8 weeks, monohydrate): 9.1
- CIE b ([1]; 12 weeks, monohydrate): 10.4
- CIE b ([1]; 20 weeks, monohydrate): 12.4
- CIE b ([1]; 24 weeks, monohydrate): 12.9
Compound: CC1=C(C(=O)O)N2C(=O)[C@@H](NC(=O)[C@H](N)c3ccc(O)cc3)[C@H]2SC1 [CDX (1), cefadroxil monohydrate]

- CIE b ([1]; 0 weeks, monohydrate): 4.4
- CIE b ([1]; 2 weeks, monohydrate): 4.8
- CIE b ([1]; 4 weeks, monohydrate): 5.1
Compound: CC1=C(C(=O)O)N2C(=O)[C@@H](NC(=O)[C@H](N)c3ccc(O)cc3)[C@H]2SC1 [CDX (2), cefadroxil monohydrate]

- CIE b ([1]; 0 weeks, monohydrate): 3.1
- CIE b ([1]; 2 weeks, monohydrate): 3.0
- CIE b ([1]; 4 weeks, monohydrate): 4.6
Compound: CC1=C(C(=O)O)N2C(=O)[C@@H](NC(=O)[C@H](N)c3ccc(O)cc3)[C@H]2SC1 [CDX (3), cefadroxil monohydrate]

- CIE b value [2]: 4.68
Compound: CC1=C(C(=O)O)N2C(=O)[C@@H](NC(=O)[C@H](N)c3ccc(O)cc3)[C@H]2SC1 [Example 1, cefadroxil monohydrate]

- CIE b value [2]: 4.52
Compound: CC1=C(C(=O)O)N2C(=O)[C@@H](NC(=O)[C@H](N)c3ccc(O)cc3)[C@H]2SC1 [Example 2, cefadroxil monohydrate]

- CIE b value [2]: 6.2
- CIE b ([1]; 0 weeks, listed as CDX monohydrate crystals obtained by the one-step crystallisation process, monohydrate): 6.2
- CIE b ([1]; 2 weeks, listed as CDX monohydrate crystals obtained by the one-step crystallisation process, monohydrate): 10.0
- CIE b ([1]; 4 weeks, listed as CDX monohydrate crystals obtained by the one-step crystallisation process, monohydrate): 13.2
- CIE b ([1]; 6 weeks): 15.6
- CIE b ([1]; 8 weeks, listed as CDX monohydrate crystals obtained by the one-step crystallisation process, monohydrate): 17.0
- CIE b ([1]; 12 weeks): 14.2
- CIE b ([1]; 14 weeks): 18.2
- CIE b ([1]; 18 weeks): 18.6
- CIE b ([1]; 20 weeks, listed as CDX monohydrate crystals obtained by the one-step crystallisation process, monohydrate): 19.1
- CIE b ([1]; 24 weeks, listed as CDX monohydrate crystals obtained by the one-step crystallisation process, monohydrate): 20.0
- CIE b ([3]; 0 months, listed as one-step crystallization process, monohydrate): 6.2
- CIE b ([3]; 3 months, listed as one-step crystallization process, monohydrate): 14.0
- CIE b ([3]; 6 months, listed as one-step crystallization process, monohydrate): 14.7
- CIE b ([3]; 9 months, listed as one-step crystallization process, monohydrate): 15.1
- CIE b ([3]; 12 months): 15.5
- CIE b ([3]; 18 months): 17.7
Compound: CC1=C(C(=O)O)N2C(=O)[C@@H](NC(=O)[C@H](N)c3ccc(O)cc3)[C@H]2SC1 [Reference Experiment A, cefadroxil monohydrate]

- CIE b ([3]; 0 months, monohydrate): 4.8
- CIE b ([3]; 3 months, monohydrate): 5.8
- CIE b ([3]; 6 months, monohydrate): 6.0
- CIE b ([3]; 9 months, monohydrate): 6.3
Compound: CC1=C(C(=O)O)N2C(=O)[C@@H](NC(=O)[C@H](N)c3ccc(O)cc3)[C@H]2SC1 [two-step crystallization process, cefadroxil monohydrate]
